Measurements from ChEMBL document CHEMBL3988442, “University of Dundee, Small-Polar-MMV Screening Library” (2021).

Legend:
[1] = microbe, parasite or virus in culture; settings: Mycobacterium tuberculosis, 96 h, read-out: pIC50 (converted)
[2] = microbe, parasite or virus in culture; settings: Mycobacterium tuberculosis, 72 h, read-out: pIC50 (converted)

| Compound | IC50 [1] | IC50 [2] |
| --- | --- | --- |
| CC(NC(=O)CCNC(=O)c1ccco1)c1cccs1 (stereo not drawn) | > 501 µM | > 501 µM |
| O=C(Cc1ccc(-n2cccn2)cc1)N1CCCC(n2cccn2)C1 (stereo not drawn) | > 50.1 µM | > 50.1 µM |
| CS(=O)(=O)N1CCC(Cc2ccccc2)C1 (stereo not drawn) | 467 µM | 482 µM |
| Cc1cnc(NC(C)Cc2cccnc2)nc1N(C)C (stereo not drawn) | > 50.1 µM | > 50.1 µM |
| O=S(=O)(c1ccco1)N1CCOCc2ccccc21 | > 501 µM | 291 µM |
| Cc1cccc(CN2C[C@@H](CN3CCCN(C)CC3)C[C@H](CO)C2)n1 | > 50.1 µM | > 50.1 µM |
| COC(=O)C1CC(c2ccccc2)=NO1 (stereo not drawn) | > 501 µM | > 501 µM |
| O=C(c1cc2c([nH]c1=O)CCC2)N1CCCC1c1ccccc1 (stereo not drawn) | > 50.1 µM | > 50.1 µM |
| CC1=CCN(C(=O)c2ccsc2)CC1 | > 501 µM | 160 µM |
| Cc1[nH]c(=O)[nH]c(=O)c1CN1CCCC(CCc2ccccc2F)C1 (stereo not drawn) | > 50.1 µM | > 50.1 µM |
| CN(C)C(=O)CSc1nnc(C(F)(F)F)s1 | 305 µM | 487 µM |
| COCCC(C)Nc1c[nH]nc1-c1ccccn1 (stereo not drawn) | > 501 µM | 201 µM |
| Cc1nc(CN2CCCC(CCc3ccccc3C(F)(F)F)C2)no1 (stereo not drawn) | 26.2 µM | 28.7 µM |
| NS(=O)(=O)c1cccc2c1CCCN2Cc1nccs1 | > 501 µM | > 501 µM |
| OC1(CNc2nc(-c3ccccc3)ns2)CCSC1 (stereo not drawn) | 256 µM | 279 µM |
| Cc1cccc(CN2C[C@H]3CC[C@@H]2CN(Cc2[nH]cnc2C)C3)n1 | > 50.1 µM | > 50.1 µM |
| CCc1ccc(CN(C)C(=O)c2cccn2C)nc1 | 257 µM | 175 µM |
| NC(=O)C(Sc1nncs1)c1ccc(Br)cc1 (stereo not drawn) | 266 µM | 412 µM |
| COCCOCc1cccc(NC(=O)NC(C)C)c1 | > 501 µM | > 501 µM |
| Cn1cc(Br)cc1C(=O)NCCCNc1ncccn1 | > 501 µM | 292 µM |
| CCOc1ccc(-c2cc(N)[nH]n2)cc1 | > 501 µM | 232 µM |
| CN(C1CCCC1)S(=O)(=O)NCCNc1ccccn1 | 189 µM | 94.1 µM |
| O=C(CN(C1=NCCCCC1)c1ccc(Cl)cc1)c1ccccc1 | 22.8 µM | 20.7 µM |
| CC(C)c1nnc(CNc2ccc(SC(F)(F)F)cc2)o1 | 18.9 µM | 19.3 µM |
| CN(C)S(=O)(=O)NCCNc1cccc(Br)c1 | 208 µM | 154 µM |
| CC(=O)c1ccc(Cl)c(S(=O)(=O)NC(CN)C2CC2)c1 (stereo not drawn) | 111 µM | 116 µM |

| Compound | IC50 [1] | IC50 [2] |
| --- | --- | --- |
| Cc1cnn(CC2CCCN2Cc2ncc(-c3ccc(F)cc3)o2)c1 (stereo not drawn) | > 50.1 µM | 27 µM |
| CCc1c(C)n(CCC#N)c2nc3ccccc3n2c1=O | > 50.1 µM | > 50.1 µM |
| Cc1cnc(C(=O)NCCCc2ccccn2)cn1 | > 501 µM | 111 µM |
| CNc1cccnc1N1CCCC1 | 41.3 µM | 22 µM |
| COc1ccc([S+]([O-])Cc2noc(C)n2)cc1 (stereo not drawn) | 143 µM | 206 µM |
| Cc1ccc(C(=O)CCN2CCOCC2C(N)=O)cc1 (stereo not drawn) | 152 µM | 59 µM |
| COc1ccc(Cl)c(S(=O)(=O)NCCC(C)N)c1 (stereo not drawn) | 187 µM | 116 µM |
| COCCNC(=O)Nc1ccc(OC(F)F)c(F)c1 | 253 µM | 273 µM |
| CC(NC(=O)CNc1cc(F)cc(Br)c1)C(=O)N(C)C (stereo not drawn) | > 501 µM | 289 µM |
| NCc1cccc(-c2nc(-c3ccncc3)no2)c1 | 286 µM | > 501 µM |
| COc1cccc(CNc2ccccc2CO)n1 | > 501 µM | > 501 µM |
| COc1ccc(CC2CCN2)cc1 (stereo not drawn) | 250 µM | 212 µM |
| COc1cc(C(=O)NCCCc2ccccc2)on1 | > 50.1 µM | > 50.1 µM |
| O=C(c1[nH]nc(C2CC2)c1Cl)N1CCCC1 | > 50.1 µM | > 50.1 µM |
| COc1ccc(-c2noc(C3(O)CCCC3)n2)cn1 | 104 µM | 282 µM |
| CN(CCc1ccc(Br)cc1)C(=O)CCCN | > 501 µM | 179 µM |
| OCCCNc1cccc(Cl)c1-n1cccn1 | > 501 µM | 183 µM |
| COc1cc(C(=O)N(Cc2cccs2)C2CC2)cc2c1OCCO2 | > 50.1 µM | > 50.1 µM |
| Brc1ccc2c(c1)OCCNC2 | > 501 µM | > 501 µM |
| CCc1nc(NC2CCCN(C(=O)c3cccs3)C2)c2cnn(C)c2n1 (stereo not drawn) | > 50.1 µM | > 50.1 µM |
| CN(C)c1cc(CNc2ccc(C#N)cn2)ccn1 | 453 µM | 205 µM |
| Cc1cc(CN2CCC(Oc3cccnc3)CC2)on1 | > 501 µM | > 501 µM |
| NCC(CO)Cc1cc(F)cc(Br)c1 (stereo not drawn) | 264 µM | 305 µM |
| CC(C)(C)OC(=O)N1CCC(n2cc(N)cn2)CC1 | 287 µM | 202 µM |
| Cc1ccc(NCc2cccc(O)c2)cc1S(C)(=O)=O | 333 µM | 89.7 µM |
| Cc1cnn(CC2CCCN2c2ncnc3c2CCC3)c1 (stereo not drawn) | > 50.1 µM | > 50.1 µM |

| Compound | IC50 [1] | IC50 [2] |
| --- | --- | --- |
| CC(=O)c1cccc(COC(=O)c2cccnc2)c1 | 269 µM | 231 µM |
| CC(C)c1nc(CSc2nnc(-c3cccs3)n2CC(N)=O)no1 | > 50.1 µM | 30.9 µM |
| O=C(CCC(=O)N1CCC(Oc2ncccc2Br)CC1)c1ccccc1 | 45.4 µM | 34.6 µM |
| O=C(CCC(=O)c1ccc(F)cc1)NCc1ccco1 | > 501 µM | 219 µM |
| Cc1cc(CN)on1 | 293 µM | 293 µM |
| OCCNCCNCc1ccc(-c2ccccc2F)o1 | 40.9 µM | 211 µM |
| CSCCC(=O)NCc1ccc(C)s1 | > 501 µM | > 501 µM |
| COC(=O)CNC(=O)c1nc(Br)sc1C(C)C | > 50.1 µM | > 50.1 µM |
| O=C(c1ccc(Cn2cnnn2)cc1)N1CCC(c2ccncc2)CC1 | > 50.1 µM | > 50.1 µM |
| CNS(=O)(=O)c1ccc(NCc2ccco2)cc1OC | 245 µM | 437 µM |
| CC(Nc1ccc(C#N)cn1)c1ccc2c(c1)OCO2 (stereo not drawn) | 234 µM | 215 µM |
| NC(=O)CC1CCCC1 | > 501 µM | > 501 µM |
| CCn1ccnc1CN1CCCC1Cn1cc(C)cn1 (stereo not drawn) | > 50.1 µM | 46.3 µM |
| COc1ccc(C(=O)CCN(C)C)cc1 | 294 µM | 114 µM |
| Cc1cnn(C2CCCN(C(=O)c3ccnc(N(C)C)c3)C2)c1 (stereo not drawn) | > 50.1 µM | > 50.1 µM |
| NCCN1CCN(c2cccc(C(F)(F)F)c2)CC1 | 260 µM | 356 µM |
| CNC(=O)c1ccc(Cl)c(S(=O)(=O)N2CCCCC2)c1 | > 501 µM | > 501 µM |
| Cc1cccc(-c2ccc(C(=O)NCCN3CCOCC3)c(=O)[nH]2)c1 | > 50.1 µM | > 50.1 µM |
| Cc1nccc(C(=O)N2CCCN(Cc3cnn(C(C)C)c3)CC2)n1 | > 50.1 µM | > 50.1 µM |
| COc1cccc(SCC(=O)N2CCOC(C)C2)c1 (stereo not drawn) | > 501 µM | > 501 µM |
| CCCOc1cccc(NC(=O)C(C)n2cncn2)c1 (stereo not drawn) | 331 µM | 370 µM |
| COc1cccc(-c2noc3c2CN(c2nc(C)ncc2C)CC3)c1 | 34.5 µM | 3.39 µM |
| CNc1cc2c(nn1)CCN(C(=O)c1cccc3c1OCCO3)C2 | > 50.1 µM | > 50.1 µM |
| NC1CCCN(Cc2ccccc2)C1 (stereo not drawn) | > 501 µM | 262 µM |
| N#Cc1ccc(S(=O)(=O)NCCN)cc1C(F)(F)F | 223 µM | 160 µM |
| Cc1ccc(C(=O)NCc2ccc3c(c2)OCCO3)o1 | 71.5 µM | 115 µM |

| Compound | IC50 [1] | IC50 [2] |
| --- | --- | --- |
| O=C(NCC(CO)Cc1ccc(Cl)cc1)c1ccncc1Cl (stereo not drawn) | > 50.1 µM | > 50.1 µM |
| c1cncc(-c2nc(SCC3CCCCO3)n[nH]2)c1 (stereo not drawn) | > 501 µM | 229 µM |
| Cc1cc(CN2CCCC2)cc(Oc2ccc3c(c2)CC(CN)O3)c1 (stereo not drawn) | > 50.1 µM | > 50.1 µM |
| O=C(c1cc[nH]n1)N1CCCC(c2cccc(-n3ccnc3)n2)C1 (stereo not drawn) | > 50.1 µM | > 50.1 µM |
| CCOc1cccc(Cn2cnc(CC)cc2=O)n1 | > 501 µM | > 501 µM |
| CC(C)N(C)S(=O)(=O)N(Cc1cccs1)Cc1cccs1 | > 50.1 µM | 24.8 µM |
| Cc1cc(NCCC(=O)NC(C)C)nc(-c2ccncc2)n1 | > 50.1 µM | > 50.1 µM |
| Cc1cc(OC(F)F)c(C2NC(=O)CN2C)cc1C (stereo not drawn) | > 501 µM | > 501 µM |
| CNCC(=O)NCCc1c(OC)ccc2ccccc12 | > 501 µM | 411 µM |
| CCCNC(=O)c1cc(C(C)C)nc(N2CCCC2)n1 | 41.7 µM | 11.5 µM |
| CSCCC(=O)NC(C)c1ccc2c(c1)OCCCO2 (stereo not drawn) | > 501 µM | > 501 µM |
| OCC(Nc1ncccc1Br)c1ccccc1 (stereo not drawn) | 327 µM | 184 µM |
| CCOCCOc1cc(C)ccc1CN | > 501 µM | 208 µM |
| CCCn1nnc(NC(=O)COc2ccc(Cl)cc2)n1 | 272 µM | 237 µM |
| N#CCOC(=O)c1ccc2c(c1)OCCCO2 | 182 µM | > 501 µM |
| N#CC1(C(=O)NCCCNc2ccc(C(F)(F)F)cn2)CCCC1 | 1.69 µM | 0.198 µM |
| Cc1cccc(C(=O)NCC(C)N2CCCC2)n1 (stereo not drawn) | > 501 µM | 306 µM |
| Cc1ccc(C(N)c2ccccn2)cc1 (stereo not drawn) | 191 µM | 90.7 µM |
| COc1cc(CNC(=O)Nc2ccnc(C)c2)ccn1 | 98.2 µM | 100 µM |
| FC(F)Oc1ccccc1CN1CCCC(c2nccn2CC2CC2)C1 (stereo not drawn) | > 50.1 µM | > 50.1 µM |
| CCc1ccccc1OC1CN(C(=O)c2ccnc(OC)c2)C1 | 43.4 µM | 21.3 µM |
| CC(C)NC(=O)Nc1cc(C(F)(F)F)c[nH]c1=O | 109 µM | 92.8 µM |
| Cc1cc(C)cc(OCCNC(=O)CSCC(N)=O)c1 | > 501 µM | 139 µM |
| CCCNC(=O)CSCc1nc(-c2ccccc2)no1 | 437 µM | 239 µM |
| O=C(Nc1ccc(F)c(Cl)c1)N1CCC(O)C1 (stereo not drawn) | 314 µM | 212 µM |
| c1cc(CNCc2ccc(-n3cncn3)nc2)cc(OC2CCCC2)c1 | 33.9 µM | 35 µM |
